Laboratory results: patent US20130281298A1 (priority 2012, published 2013)

Test system: citrus greening (HLB)
Format: in vivo, orange tree

SMILES: OC[C@H]1O[C@H](O[C@H]2O[C@H](CO)[C@@H](O)[C@H](O)[C@H]2O)[C@H](O)[C@@H](O)[C@@H]1O [trehalose]
- new leaf formation on apparently dead branches (as late as four months after treatment, tree seriously afflicted with citrus greening): new leaves that are formed even on apparently dead branches
- condition of tree after foliar treatment (four months after one foliar treatment to the canopy of leaves, 1 gram trehalose per 1 gallon of water, 100 gallons/acre): nearly complete renewal of the tree
- development of flowers (three months after single foliar treatment): prolific development of flowers
